# From US20200385371A1 (Propellon Therapeutics Inc., priority 2017, published 2020)
# pEC50, pIC50, pKd: −log10 of the molar value. Where two headings read alike, the source gives them in different places.
# What was measured:
# WDR5 [1] = target: T1, WDR5 (Homo sapiens, UniProt P61964); assay: Fluorescence Polarization (FP) binding assay
# Outline: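 Displacement of fluorescein-labelled H3 (1-15) (30 nM, with 0.3 μM WDR5) or 9-Ala-FAM (20 nM, with 0.05 μM WDR5) in 80 mM sodium phosphate pH 6.5, 20 mM KCl, 0.008% Triton X-100. FP read at 485/528 nm (H3) or 480/540 nm (9-Ala-FAM); Kdisp from hyperbolic fit, mean of quadruplicates.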
# MV4-11 cells = assay: Cell proliferation assay (ATPlite); format: cell-based; details: Homo sapiens; for pEC50: 120 h, MV4-11 cells, five days, read-out: GI MV411 EC50; for pIC50: MV4-11, Table 2
# Outline: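 Cells seeded at 1,000/well in Alpha-MEM with 10% FBS, treated with compound over a 10-point range (top 10 μM) or DMSO. Grown five days at 37° C, 5% CO2; viability by ATPlite luminescence.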
# WDR5 [2] = target: T1, WDR5; assay: Surface Plasmon Resonance (SPR) assay; format: binding; parameters: Full length WDR5 with an N-terminal His tag and C-terminal AviTag; His tag (N); made in house; host or cells: E. coli
# Outline: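 Full-length biotinylated WDR5 (N-His, C-AviTag, E. coli) captured (~3000 RU) on streptavidin SA chip; Biacore T200. HBS-EP pH 7.4 plus 5% DMSO running buffer, 40 μl/min.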
# MLL1-WRAD2 complex = target: T2, MLL1-WRAD2 complex (Homo sapiens, UniProt P61964); assay: MLL1-WRAD2 enzyme assay (HMT); format: biochemical
# T2 construct: His tag (N); made in house; host or cells: E. coli
# Protocol: Specifically, recombinant human MLL1 (aa 3745-3969, GenBank Accession No. NM_005933), WDR5 (aa 22-334, GenBank Accession No. NM_017588), RbBP5 (aa 1-538, GenBank Accession No. NM_005057), Ash2L (aa 2-534, GenBank Accession No. NM_001105214), and DPY-30 (aa 1-99, GenBank Accession No. NM_0325742), all with N-terminal His tag, are expressed in E. coli and mixed at a molar ratio of 1:1:1:1:2. 10 nM of the assembled MLL1-WRAD2 complex is mixed with 100 nM WRAD2 to enhance complex formation before incubation with 0.05 mg/ml nucleosome substrate and compounds (as 10 point duplicate dose response titrations) for 15 min in a buffer consisting of 50 mM Tris (pH 8.5), 5 mM MgCl2, 50 mM NaCl, 1 mM DTT, 0.01% Brij-35, and 1% DMSO. Reaction is initiated with 1 μM 3H-SAM and incubated for 1 hour at 30° C. Reaction mixture is transferred to P81 filter-paper and washed with PBS before detection.
# [3] = Table 2, effect of difluoro substitution, read-out: KD (SPR)
pIC50 (WDR5 [1]),pEC50 (MV4-11 cells),pKd (WDR5 [2]; read-out: SPR Kd),pIC50 (MV4-11 cells),pIC50 (MLL1-WRAD2 complex; Table 2),pKd (WDR5 [2]; [3]),"pIC50 (MLL1-WRAD2 complex; Table 2, no unit printed in the cell)",Structure (SMILES)
7.58,6.77,8.89,–,–,–,–,"C[C@H]1CN(c2cc(F)c(-c3ccc4c(c3)OCCO4)c(F)c2NC(=O)c2c[nH]c(=O)cc2C(F)(F)F)CCN1C [Example 185, (S)—N-(3-(2,3-dihydrobenzo[b][1,4]dioxin-6-yl)-6-(3,4-dimethylpiperazin-1-yl)-2,4-difluorophenyl)-6-oxo-4-(trifluoromethyl)-1,6-dihydropyridine-3-carboxamide]"
7.57,7.40,9.10,–,–,–,–,"C[C@H]1CN(c2cc(F)c(-c3ccc(OC4CCOCC4)nc3)c(F)c2NC(=O)c2c[nH]c(=O)cc2C(F)(F)F)CCN1C [Example 186, (S)—N-(6-(3,4-dimethylpiperazin-1-yl)-2,4-difluoro-3-(6-((tetrahydro-2H-pyran-4-yl)oxy)pyridin-3-yl)phenyl)-6-oxo-4-(trifluoromethyl)-1,6-dihydropyridine-3-carboxamide]"
7.83,6.04,8.53,–,–,–,–,"C[C@H]1CN(c2cc(F)c(C3=CCN(C(=O)c4csc(CN(C)C)n4)CC3)c(F)c2NC(=O)c2c[nH]c(=O)cc2C(F)F)CCN1C [Example 187, (S)-4-(difluoromethyl)-N-(3-(1-(2-((dimethylamino)methyl)thiazole-4-carbonyl)-1,2,3,6-tetrahydropyridin-4-yl)-6-(3,4-dimethylpiperazin-1-yl)-2,4-difluorophenyl)-6-oxo-1,6-dihydropyridine-3-carboxamide]"
7.88,6.33,8.60,–,–,–,–,"Cc1nc(C(=O)N2CCC=C(c3c(F)cc(N4C[C@@H](C)N(C)[C@@H](C)C4)c(NC(=O)c4c[nH]c(=O)cc4C(F)(F)F)c3F)C2)cs1 [Example 188, N-(2,4-difluoro-3-(1-(2-methylthiazole-4-carbonyl)-1,2,5,6-tetrahydropyridin-3-yl)-6-((3S,5R)-3,4,5-trimethylpiperazin-1-yl)phenyl)-6-oxo-4-(trifluoromethyl)-1,6-dihydropyridine-3-carboxamide]"
7.90,6.31,8.82,–,–,–,–,"C[C@@H]1CN(c2cc(F)c(C3=CCCN(C(=O)c4csc(CN(C)C)n4)C3)c(F)c2NC(=O)c2c[nH]c(=O)cc2C(F)(F)F)C[C@H](C)N1C [Example 189, N-(3-(1-(2-((dimethylamino)methyl)thiazole-4-carbonyl)-1,2,5,6-tetrahydropyridin-3-yl)-2,4-difluoro-6-((3S,5R)-3,4,5-trimethylpiperazin-1-yl)phenyl)-6-oxo-4-(trifluoromethyl)-1,6-dihydropyridine-3-carboxamide]"
7.89,7.31,9.02,–,–,–,–,"C[C@@H]1CN(c2ccc(-c3c(F)cc(N4C[C@@H](C)N(C)[C@@H](C)C4)c(NC(=O)c4c[nH]c(=O)cc4C(F)F)c3F)cn2)CCO1 [Example 190, N-(2,4-difluoro-3-(6-((R)-2-methylmorpholino)pyridin-3-yl)-6-((3S,5R)-3,4,5-trimethylpiperazin-1-yl)phenyl)-4-(difluoromethyl)-6-oxo-1,6-dihydropyridine-3-carboxamide]"
7.97,7.39,8.97,–,–,–,–,"C[C@@H]1CN(c2ccc(-c3c(F)cc(N4C[C@@H](C)N(C)[C@@H](C)C4)c(NC(=O)c4c[nH]c(=O)cc4C(F)F)c3F)cn2)C[C@H](C)O1 [Example 191, 4-(Difluoromethyl)-N-(3-(6-((2S,6R)-2,6-dimethylmorpholino)pyridin-3-yl)-2,4-difluoro-6-((3S,5R)-3,4,5-trimethylpiperazin-1-yl)phenyl)-6-oxo-1,6-dihydropyridine-3-carboxamide]"
7.78,7.15,9.01,–,–,–,–,"C[C@@H]1CN(c2cc(F)c(-c3ccc(N4CCO[C@@H](C)C4)nc3)c(F)c2NC(=O)c2c[nH]c(=O)cc2C(F)(F)F)C[C@H](C)N1C [Example 192, N-(2,4-difluoro-3-(6-((S)-2-methylmorpholino)pyridin-3-yl)-6-((3S,5R)-3,4,5-trimethylpiperazin-1-yl)phenyl)-6-oxo-4-(trifluoromethyl)-1,6-dihydropyridine-3-carboxamide]"
–,–,–,7.51,7.39,8.74,–,"C[C@@H]1CN(c2ncc(-c3c(F)cc(N4C[C@@H](C)N(C)[C@@H](C)C4)c(NC(=O)c4c[nH]c(=O)cc4C(F)(F)F)c3F)cn2)C[C@H](C)O1 [drawing 478, reference compound]"
–,–,–,7.52,7.20,8.43,–,"C[C@@H]1CN(c2cc(F)c(-c3cnc(N4CCOCC4)nc3)c(F)c2NC(=O)c2c[nH]c(=O)cc2C(F)(F)F)C[C@H](C)N1C [drawing 479, reference compound]"
–,–,–,–,–,9.40,6.82,C[C@@H]1CN(c2ncc(-c3cc(NC(=O)c4c[nH]c(=O)cc4C(F)(F)F)c(N4C[C@@H](C)N(C)[C@@H](C)C4)cc3F)cn2)C[C@H](C)O1 [reference compound]
–,–,–,–,6.81,8.96,–,C[C@@H]1CN(c2ccc(-c3cnc(N4CCOCC4)nc3)c(F)c2NC(=O)c2c[nH]c(=O)cc2C(F)(F)F)C[C@H](C)N1C [reference compound]
